For the assay, the system named is A53T a-syn or EV rats. In words: AAV-A53T a-syn rat model, low titer. Format: in vivo. The text has this:
Third, we used a preclinical rat model of PD in which SN degeneration is induced by AAV vector-mediated expression of human mutant A53T a-syn[18],[45]–[48] (Fig. 5A). […] (Fig. 5B, C). […] Furthermore, overexpression of A53T a-syn was associated with a reduction in LAMP1 positive puncta in the SN which was restored with PDpep1.3 (Figs. 5E, S5E). […] Forelimb asymmetry in the cylinder test is a behavioral impairment associated with SN degeneration which models bradykinesia, the cardinal motor abnormality in PD[49].
Adult female Sprague-Dawley rats (250–280 g; Envigo) were pair-housed in cages with wood bedding and had access to food and water ad libitum. The animal colony was maintained in a regular 12 h light/dark cycle. All procedures were approved by the University Health Network Animal Care Committee in accordance with guidelines and regulations set by the Canadian Council on Animal Care (AUP #3818).
Animals were secured in a stereotactic frame under isoflurane/oxygen anesthesia and ketoprofen (5 mg/kg) analgesia. The surgical site was shaved and sterilized with iodine/betadine prior to making a 2 cm incision along the midline. The scalp was exposed and a unilateral injection targeting the SN was performed at coordinates AP −5.2 mm, ML −2 mm and DV −7.5 mm with respect to the bregma as a point of reference. […]
Immunofluorescence staining for a-syn, pS129 a-syn, TH, and LAMP1 was performed by washing free-floating sections with PBS-T (0.1% Tween-20 or 0.2% Triton-X-100) three times for 10 min each at room temperature. […] Sections were then mounted onto glass slides and allowed to dry and then Dako fluorescence mounting medium (Agilent) was applied, followed by coverslips.
Confocal images of immunofluorescent staining of midbrain sections were processed using HALO software (Indica Labs), which is a well validated tool for automatic quantification of neurons in brain tissue sections[70]–[72]. […] Levels of total a-syn were assessed in this ROI by measuring the area and intensity of anti-a-syn staining. […]

For DEEIERQLKALG [PDpep1.3], the “Effect on LAMP1 positive puncta in SN” value was “restored” and the “Effect on total a-syn positive area in SN” value was “significant reduction in total a-syn positive area in the SN”. For the same sequence, the “a-syn mean fluorescence intensity in TH+ and GFP+ SN cells” value (n = 5–7 rats/group) is given as 0.335 ± 0.025 RFU.

These data come from publication PMC10115881, “Disrupting the α-synuclein-ESCRT interaction with a peptide inhibitor mitigates neurodegeneration in preclinical models of Parkinson’s disease” (Nature Communications, 2023).
